In US7217805B2, “Bicyclonucleoside analogues” (Sankyo Company, Limited, priority 1999, dated 2007):
[3'-NH2-LNA] = 3'-amino-3'-deoxy-2'-O,4'-C-methylene-5-methyluridine; d = 2'-deoxy (DNA)

System: double stranded DNA with the sequence of 5′-gctaaaaagaaagagagatcg-3′ (SEQ ID NO: 3) and its complementary strand 5′-cgatctctctttctttttagc-3′ (SEQ ID NO: 4)
Experiment: Measurement of Tm for determination of activity of triplet formation
Format: binding
Conditions: 7 mM sodium phosphate buffer pH 7.0, 140 mM KCl, 1.5 μM each nucleotide, UV 260 nm

Work on “Oligonucleotide (2): 5′-tttttmtntmtmtmt-3′ (SEQ ID NO: 2), m is 5-methyl 2′-deoxycytidine, n is 3′-amino-3′-deoxy-2′-O,4′-C-methylene-5-methyluridine (TTTTTCTTTCTCTCT; sugars from the 5' end d7 [3'-NH2-LNA]1 d7, all C 5-methyl, backbone not given here; triplex-forming oligonucleotide, further chemistry not fully specified)” yielded a Tm (With MgCl2 (10 mM)) of 55 °C and a Tm (Without MgCl2) of 44 °C.
“Oligonucleotide (3): natural oligonucleotide which forms a triplet, 5′tttttmtttmtmtmt-3′ (SEQ ID NO: 5), m is 5-methyl-2′deoxycytidine (TTTTTNTTTNTNTNT; 5-methyl-2'-deoxycytidine, chemistry not fully specified)” gave a Tm (With MgCl2 (10 mM)) of 44 °C and a Tm (Without MgCl2) of 32 °C.
